# Experimental data taken from patent publication US11446393B2, “Non-viral gene delivery agent comprising lipopeptide (LP) compounds” (MONASH UNIVERSITY, priority 2017, dated 2022).
# Peptide text beside a SMILES is read from it. * marks the point of attachment. Stearoyl = CCCCCCCCCCCCCCCCCC(=O)*
# Test system: plasmid DNA
# Assay: Dye exclusion assay (SYBR Gold) of DNA condensation by lipopeptide
# Format: physicochemical
# Conditions: charge ratio 2.5:1; n=3, p<0.05; data not shown
# Description: To determine the charge ratio at which the LP effectively condenses the DNA, a dye exclusion assay was carried out. In a 96-well black-bottomed plate, plasmid DNA (20 μg/mL) was prepared in 12 mM Tris-HCl (pH 7.4) buffer. To each well containing DNA, 0.05 μL of 10,000× concentrated stock of intercalating SYBR® Gold (Thermo Fisher Scientific) was added and the plate was incubated at room temperature for 15 minutes. The LP was then added to the wells at a series of charge ratios from 0.5:1 to 5:1. A well containing 20 μg/mL of naked DNA and SYBR® Gold was used as a 100% fluorescence intensity standard (ie no LP added). A blank well containing only the SYBR® Gold in buffer was used to subtract from the fluorescent readings of each sample. The plate was incubated at room temperature for 30 minutes for particle formation. The fluorescence (excitation 492 nm, emission 540 nm) of each sample was measured using a Wallac Envision 2102 Multilabel Reader (PerkinElmer, Waltham, Mass., United States of America).
compound,measurement,value
"CCCCCCCCCCCCCCCCCC(=O)NC(CS)C(=O)NC(Cc1cnc[nH]1)C(=O)NC(Cc1cnc[nH]1)C(=O)NC(CCCCN)C(=O)NC(CCCCN)C(=O)NC(CCCCN)C(=O)O (stereo not drawn) [stearoyl-CH2K3, stearoyl-Cys-His-His-Lys-Lys-Lys] (Stearoyl-CHHKKK-OH; configuration not given here)",Fluorescence of LP/DNA particles after addition of dithiothreitol (DTT) to the LP before complexation,significantly increased the degree of fluorescence
